Measurements reported in PMC6434189, “Peperomin E and its orally bioavailable analog induce oxidative stress-mediated apoptosis of acute myeloid leukemia progenitor cells by targeting thioredoxin reductase” (Redox Biology, 2019).
Entries after “also recorded” stand apart in the source; their conditions may differ. Each block holds one molecule with its values, some of them ahead of it.

Columns and labels:
primary CD34+ AML cells = experiment: CCK-8 cell viability assay on primary CD34+ AML cells; format: cell-based, human; conditions: 48 h, CCK-8
Method: (§1) The mononuclear cells were further enriched for CD34 positive cells using the MACS CD34 MicroBead kit following the manufacturer's protocol. Enriched CD34 cell-purity was measured by flow cytometry-based quantification of cells stained using an anti-CD34-FITC antigen. Isolated CD34^+ cells were pre-incubated in the IMDM-based serum-free media for 1 h before the addition of drugs. PepE was dissolved in DMSO to make a 100 mM stock solution and stored in aliquots at – 20 °C. The 100 mM stock solution was diluted with DMSO to 10 mM and then diluted with PBS to 1 mM before treating the cells at the indicated concentrations. DMAPE and Ara-C were diluted in PBS to 1 mM concentration before use.
(§2) Unless otherwise mentioned, 2 × 10^4 cells were seeded at 96-well plates (Corning, New York, USA) in the IMDM-based serum-free media for 1 h. Then, the cells were incubated with different concentrations of PepE and DMAPE at 37 °C in a 5% CO2 incubator for 48 h. At the end of the treatment, 10 μL CCK-8 solution was added to each well and incubated for an additional 2 h at 37 °C, and the absorbance at 450 nm was measured with a microplate reader (Thermo Scientific, Multiskan GO, Finland). Inhibition ratio (%) was calculated as [(absorbance of control − absorbance of the test sample)/absorbance of control] x 100%.

KG-1a CD34+ cells = experiment: KG-1a-Luc CD34+ xenograft in NOD/SCID mice, bioluminescence; format: in vivo; conditions: 50 mg/kg i.g. daily, 5 weeks
Method: Six-week-old female NOD-SCID mice (obtained from the model animal research center of Nanjing University, Nanjing, China) were acclimated for 1 week and housed in groups of five. All animal studies were conducted under the guidelines approved by the Animal Care and Use Committee of the Nanjing University of Chinese Medicine (Nanjing, China). The mice were sublethally irradiated with 2.7 Gy before transplantation.
KG-1a cells tagged with a luciferase reporter gene (KG-1a-Luc) were obtained from Cobioer biotechnology Inc. (Nanjing, Jiangsu, China) and cultured in 90% IMDM supplemented with 10% FBS, 0.05 mM 2-Mercaptoethanol, and 1 μg/mL Puromycin, and grown at 37 °C in a 5% CO2 humidified incubator. CD34 positive cells were enriched (following the 2.3 method) and injected via the tail vein in a final volume of 0.2 mL PBS with 0.5% FBS. For analyzing the luciferase signal, 5 × 10^6 cells KG-1a-Luc cells were used for each recipient animal. Seven days after transplantation, mice with KG-1a-Luc implants were subjected to bioluminescent analysis based on the luciferase signal. Briefly, mice received D-luciferin phosphate solution (100 mg/kg) intravenously 10 min prior to imaging. They were then anesthetized with isoflurane inhalation and imaged using a Xenogen IVIS scanner (PerkinElmer, Waltham, MA, USA). The next day, mice showing successful implantations were randomly divided into the control, DMAPE low dose, DMAPE high dose, and Ara-C treatment groups (n = 5 in each group), which received daily i. g. saline buffer, DMAPE phosphate salt 25 mg/kg, DMAPE phosphate salt 50 mg/kg and Ara-C (50 mg/kg), respectively. The growth of KG-1a-Luc cells was monitored every week by their luciferase signal. Five weeks after the implantation, all mice were sacrificed and their livers, kidneys, and bone marrow were excised for ex vivo bioluminescent imaging. The bioluminescent signal intensity was all quantified using the Living Image software (version 4.2, Carliper Life Science, Inc., Hopkinton, MA, USA) and is presented as photons/second/cm^2/sr (sr denotes steradian).

[1] = test system: CD34+ NBM cells and hBMSCs; experiment: CCK-8 cell viability assay on normal CD34+ NBM cells and hBMSCs; format: cell-based, human; conditions: 48 h, CCK-8
Method: as §1, §2

Sec residue in TrxR1 = molecular target: T1, Sec residue in TrxR1 (Homo sapiens, UniProt Q16881); experiment: BIAM labeling assay; format: biochemical; conditions: pH 6.5; PepE 1, 5, 10 μM; DNCB 5 μM
T1 construct: purchased Abcam ab204206
T1 sequence (Q16881 1-499 isoform Q16881-5): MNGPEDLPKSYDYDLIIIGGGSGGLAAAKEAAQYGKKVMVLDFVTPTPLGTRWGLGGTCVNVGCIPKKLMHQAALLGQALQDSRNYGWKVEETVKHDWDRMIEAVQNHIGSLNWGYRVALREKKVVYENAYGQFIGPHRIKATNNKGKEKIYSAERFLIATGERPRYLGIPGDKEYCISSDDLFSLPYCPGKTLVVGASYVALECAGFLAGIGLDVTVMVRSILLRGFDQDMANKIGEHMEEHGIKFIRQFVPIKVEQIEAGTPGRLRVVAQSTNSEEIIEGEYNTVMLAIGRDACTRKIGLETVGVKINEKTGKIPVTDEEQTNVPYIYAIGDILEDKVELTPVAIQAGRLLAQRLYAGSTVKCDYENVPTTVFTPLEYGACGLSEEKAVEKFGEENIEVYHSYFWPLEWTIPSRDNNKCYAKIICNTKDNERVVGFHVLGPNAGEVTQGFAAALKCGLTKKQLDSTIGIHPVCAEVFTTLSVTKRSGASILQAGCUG
Method: To further assess whether the Sec residue in TrxR1 was the modified site of PepE. The BIAM labeling assay was performed according to previous report. Briefly, 100 μM BIAM stock solution in 100 mM Tris-HCl, 1 mM EDTA buffer (pH = 6.5) was freshly prepared before each test. The TrxR1 protein (1 μM) was incubated with different concentrations (1, 5, 10 μM) of PepE or 5 μM of DNCB (positive control) and DMSO (negative control) in 50 mM Tris-HCl, 1 mM EDTA buffer (pH = 7.5) and 400 μM NADPH at 37 °C. After incubation, 4 μL of the reaction mixture was withdrawn and added mixed with 20 μM of BIAM solution in 100 mM Tris-HCl, 1 mM EDTA assay buffer (pH = 6.5) for 30 min at 37 °C to allow selective alkylation of free Sec residues. The reaction was stopped by adding the IAA solution (final concentration 50 mM). The samples were then denatured in SDS buffer, boiled and subjected to SDS-PAGE and western-blotting on a 7.5% gel, and the separated proteins were transferred to nitrocellulose membrane. The enzymes labeled with BIAM were detected with HRP-conjugated streptavidin and enhanced chemiluminescence detection. The bands were analyzed using Gel-pro 32 software.

NADPH-reduced TrxR1 = molecular target: T2, NADPH-reduced TrxR1 (Homo sapiens, UniProt Q16881); experiment: Bio-layer interferometry (BLI) binding assay, TrxR1; conditions: NADPH-reduced TrxR1 0.9 μM, 25 °C
T2 construct: purchased Abcam ab204206
T2 sequence (Q16881 1-499 isoform Q16881-5): T1 sequence (Q16881 1-499 isoform Q16881-5)
Method: The binding kinetics of PepE or PepA to purified recombinant proteins were determined using BLI on an Octet RED 96 system (ForteBio, Shanghai, China) following the manufacturer's protocol. All interaction analyses were performed at 25 °C in PBS with 0.2% DMSO. Purified recombinant proteins (0.9 μM, the TrxR1 full length and TrxR1 protein fragment were pre-reduced by 400 μM of NADPH before test) were pre-labeled with biotin using […] (Abcam) following the manufacturer's instruction. Loading of the Dip and Read Super Streptavidin (SSA) Biosensors (ForteBio) were conducted by exposing biotinylated proteins to biosensor tips for 2 h. The 96-well microplates used in the Octet were filled with 200 μL sample or buffer per well and agitated at 1000 rpm. The loaded biosensors were washed in buffer for 600 s and transferred to wells containing PepE at concentrations of 0.625, 1.25, 2.5, 5, and 10 μM or PepA at concentrations of 1.25, 2.5, 5, 10 and 20 μM, respectively, in the buffer. […] Reference measurements were conducted using the buffer instead of PepE (or PepA). A parallel set of SA unloaded biosensors was prepared to act as a control. The sample-sensorgrams were corrected by subtracting the double reference curve. Kinetic parameters (Kon and Kdis) and affinity (KD) were determined from a global fit to a 1:1 binding model of the data between proteins and PepE using Octet software (ForteBio).

TrxR1 = conditions: read-out: TrxR1 inhibition IC50; cited from earlier work

SMILES: Nc1ccn([C@@H]2O[C@H](CO)[C@@H](O)[C@@H]2O)c(=O)n1 [Ara-C, Cytarabine, reference compound]
toxicity against AML progenitor cells (primary CD34+ AML cells): no apparent toxicity | in vivo efficacy against KG-1a CD34+ cells (KG-1a CD34+ cells): not obvious; also recorded: not significant | toxicity on NBM and hBMSC cells in side-by-side comparison [1]: more toxic than PepE and DMAPE

SMILES: O=[N+]([O-])c1ccc(Cl)c([N+](=O)[O-])c1 [DNCB, 1-chloro-2,4-dinitrobenzene, reference compound]
BIAM alkylation of Sec residue of TrxR1 (Sec residue in TrxR1): significantly block

Kd (NADPH-reduced TrxR1): 111 µM
SMILES: COc1cc(C(c2cc(OC)c3c(c2)OCO3)[C@@H]2COC(=O)[C@H]2C)cc2c1OCO2 [PepA, Peperomin A, reference compound]

SMILES: C=C1C(=O)O[C@H]2[C@H]1CC/C(C)=C/CC[C@@]1(C)O[C@@H]21 [parthenolide, Parthenolide]
IC50 (TrxR1): ~3000 nM

SMILES: CC(C)=CC[C@@H](O)C1=CC(=O)c2c(O)ccc(O)c2C1=O [shikonin]
IC50 (TrxR1): ~1600 nM
